Laboratory results from patent publication US12091402B2 (Avilar Therapeutics, Inc., priority 2021, dated 2024).
Where two headings read alike, the source gives them in different places. Where a SMILES comes first, the peptide text is derived from it. Bridges are numbered along the chain shown (N, C = ends). [ ]: non-standard residue; d: D form. Pro(4S-NH2) = N[C@@H]1CN[C@H](C(=O)O)C1; hSer = N[C@@H](CCO)C(=O)O

Target: IgG
Assay: Affinity to IgG by surface plasmon resonance (SPR)
Format: binding
Procedure: Immobilization levels ranging from 1000-1300 resonance units (RU) are obtained. The running buffer is 10 mM HEPES, pH 7.4, 400 mM NaCl, 0.005% P20, […].

[1] = Biacore 8K, 25° C., IgG on CM5 chip, read-out: IgG SPR Binding Kd

| SMILES | Kd [1] [nM] | Kd (SPR, read-out: IgG KD) [nM] |
| --- | --- | --- |
| CC(C)C[C@@H]1NC(=O)[C@H](C)NC(=O)CNC(=O)[C@H](CC(C)C)NC(=O)[C@H](Cc2cnc[nH]2)NC(=O)[C@H](Cc2c[nH]c3ccccc23)NC(=O)[C@H](C)NC(=O)[C@@H]2CSSC[C@H](NC(=O)[C@H](Cc3c[nH]c4ccccc34)NC(=O)[C@H](C(C)C)NC1=O)C(=O)N[C@@H]([C@@H](C)O)C(=O)N1CCC[C@@H]1C(=O)N1C[C@@H](N)C[C@H]1C(=O)N[C@@H](C)C(=O)N2 [Intermediate 25] (cyclo(ACAWHLGALVWCT[dP][Pro(4S-NH2)]); disulfide 2-12) | < 100 | < 100 |
| CC(C)C[C@@H]1NC(=O)[C@H](Cc2cnc[nH]2)NC(=O)[C@H](Cc2c[nH]c3ccccc23)NC(=O)[C@H](CCO)NC(=O)[C@@H]2CSSC[C@H](NC(=O)[C@H](Cc3c[nH]c4ccccc34)NC(=O)[C@H](C(C)C)NC(=O)[C@H](CC(C)C)NC(=O)[C@H](CCC(=O)O)NC(=O)CNC1=O)C(=O)N[C@@H]([C@@H](C)O)C(=O)N1CCC[C@@H]1C(=O)N1C[C@@H](N)C[C@H]1C(=O)N[C@@H](CC(=O)O)C(=O)N2 [Intermediate 21] (cyclo(CT[dP][Pro(4S-NH2)]DC[hSer]WHLGELVW); disulfide 1-6) | < 100 | < 100 |
| C#CCCCC(=O)NCCOCCOCCOCCOCCN[C@@H](CC(=O)O)C(=O)N[C@H]1CSSC[C@@H](C(=O)N[C@H](C(N)=O)[C@@H](C)O)NC(=O)[C@H](Cc2c[nH]c3ccccc23)NC(=O)[C@H](C(C)C)NC(=O)[C@H](CC(C)C)NC(=O)[C@H](CCC(=O)O)NC(=O)CNC(=O)[C@H](CC(C)C)NC(=O)[C@H](Cc2cnc[nH]2)NC(=O)[C@H](Cc2c[nH]c3ccccc23)NC(=O)[C@H](C)NC1=O [Intermediate 3] | < 100 | – |
| CC(C)C[C@@H]1NC(=O)[C@H](Cc2cnc[nH]2)NC(=O)[C@H](Cc2c[nH]c3ccccc23)NC(=O)[C@H](C)NC(=O)[C@@H]2CSSC[C@H](NC(=O)[C@H](Cc3c[nH]c4ccccc34)NC(=O)[C@H](C(C)C)NC(=O)[C@H](CC(C)C)NC(=O)[C@H](CCC(=O)O)NC(=O)CNC1=O)C(=O)N[C@@H]([C@@H](C)O)C(=O)N1CCC[C@@H]1C(=O)N1C[C@@H](N)C[C@H]1C(=O)N[C@@H](CC(N)=O)C(=O)N2 [Intermediate 13] (cyclo(AWHLGELVWCT[dP][Pro(4S-NH2)]NC); disulfide 10-15) | < 100 | < 100 |
| CC(C)C[C@@H]1NC(=O)[C@H](Cc2cnc[nH]2)NC(=O)[C@H](Cc2c[nH]c3ccccc23)NC(=O)[C@H](C)NC(=O)[C@@H]2CSSC[C@H](NC(=O)[C@H](Cc3c[nH]c4ccccc34)NC(=O)[C@H](C(C)C)NC(=O)[C@H](CC(C)C)NC(=O)[C@H](CCC(=O)O)NC(=O)CNC1=O)C(=O)N[C@@H]([C@@H](C)O)C(=O)N1CCC[C@@H]1C(=O)N1C[C@@H](N)C[C@H]1C(=O)N[C@@H](C)C(=O)N2 [Intermediate 12] | < 100 | < 100 |
| C#CCCCC(=O)NCCOCCOCCOCCOCCC(=O)N[C@@H](CC(=O)O)C(=O)N[C@H]1CSSC[C@@H](C(=O)N[C@H](C(N)=O)[C@@H](C)O)NC(=O)[C@H](Cc2c[nH]c3ccccc23)NC(=O)[C@H](C(C)C)NC(=O)[C@H](CC(C)C)NC(=O)[C@H](CCC(=O)O)NC(=O)CNC(=O)[C@H](CC(C)C)NC(=O)[C@H](Cc2cnc[nH]2)NC(=O)[C@H](Cc2c[nH]c3ccccc23)NC(=O)[C@H](C)NC1=O [Intermediate 1] | < 100 | < 100 |
| CC(C)C[C@@H]1NC(=O)[C@H](Cc2cnc[nH]2)NC(=O)[C@H](Cc2c[nH]c3ccccc23)NC(=O)[C@H](C)NC(=O)[C@@H]2CC/C=C/C[C@H](NC(=O)[C@H](Cc3c[nH]c4ccccc34)NC(=O)[C@H](C(C)C)NC(=O)[C@H](CC(C)C)NC(=O)[C@H](CCC(=O)O)NC(=O)CNC1=O)C(=O)N[C@@H]([C@@H](C)O)C(=O)N1CCC[C@@H]1C(=O)N1CCC[C@H]1C(=O)N[C@@H](CC(=O)O)C(=O)N2 | – | < 100 |
| CC(C)C[C@@H]1NC(=O)[C@H](C)NC(=O)CNC(=O)[C@H](CC(C)C)NC(=O)[C@H](Cc2cnc[nH]2)NC(=O)[C@H](Cc2c[nH]c3ccccc23)NC(=O)[C@H](C)NC(=O)[C@@H]2CSSC[C@H](NC(=O)[C@H](Cc3c[nH]c4ccccc34)NC(=O)[C@H](C(C)C)NC1=O)C(=O)N[C@@H]([C@@H](C)O)C(=O)N1CCC[C@@H]1C(=O)N1C[C@@H](N)C[C@H]1C(=O)N[C@@H](CC(=O)O)C(=O)N2 [Intermediate 17] (cyclo(ALVWCT[dP][Pro(4S-NH2)]DCAWHLG); disulfide 5-10) | < 100 | < 100 |
| C#CCCCC(=O)NCCOCCOCCOCCOCCC(=O)N[C@H]1C[C@H]2C(=O)N[C@@H](CC(=O)O)C(=O)N[C@H]3CSSC[C@H](NC(=O)[C@H](Cc4c[nH]c5ccccc45)NC(=O)[C@H](C(C)C)NC(=O)[C@H](CC(C)C)NC(=O)[C@H](CCC(=O)O)NC(=O)CNC(=O)[C@H](CC(C)C)NC(=O)[C@H](Cc4cnc[nH]4)NC(=O)[C@H](Cc4c[nH]c5ccccc45)NC(=O)[C@H](C)NC3=O)C(=O)N[C@@H]([C@@H](C)O)C(=O)N3CCC[C@@H]3C(=O)N2C1 [Intermediate 4] | < 100 | < 100 |
| CC(C)C[C@@H]1NC(=O)[C@H](Cc2cnc[nH]2)NC(=O)[C@H](Cc2c[nH]c3ccccc23)NC(=O)[C@H](C)NC(=O)[C@@H]2CSSC[C@H](NC(=O)[C@H](Cc3c[nH]c4ccccc34)NC(=O)[C@H](C(C)C)NC(=O)[C@H](CC(C)C)NC(=O)[C@H](CCC(=O)O)NC(=O)CNC1=O)C(=O)N[C@@H]([C@@H](C)O)C(=O)N1CCC[C@@H]1C(=O)N1C[C@H](N)C[C@H]1C(=O)N[C@@H](CC(=O)O)C(=O)N2 [Intermediate 30] | – | < 100 |

Further lines, with some results ahead:

| Kd [1] [nM] | SMILES | Kd (SPR, read-out: IgG KD) [nM] |
| --- | --- | --- |
| < 100 | C#CCCCC(=O)NCCOCCOCCOCCC(=O)N[C@H]1C[C@H]2C(=O)N[C@@H](CC(=O)O)C(=O)N[C@H]3CSSC[C@H](NC(=O)[C@H](Cc4c[nH]c5ccccc45)NC(=O)[C@H](C(C)C)NC(=O)[C@H](CC(C)C)NC(=O)[C@H](CCC(=O)O)NC(=O)CNC(=O)[C@H](CC(C)C)NC(=O)[C@H](Cc4cnc[nH]4)NC(=O)[C@H](Cc4c[nH]c5ccccc45)NC(=O)[C@H](C)NC3=O)C(=O)N[C@@H]([C@@H](C)O)C(=O)N3CCC[C@@H]3C(=O)N2C1 [Intermediate 9] | – |
| < 100 | CC(C)C[C@@H]1NC(=O)[C@H](Cc2cnc[nH]2)NC(=O)[C@H](Cc2c[nH]c3ccccc23)NC(=O)[C@H](C)NC(=O)[C@@H]2CSSC[C@H](NC(=O)[C@H](Cc3c[nH]c4ccccc34)NC(=O)[C@H](C(C)C)NC(=O)[C@H](CC(C)C)NC(=O)[C@H](CCC(N)=O)NC(=O)CNC1=O)C(=O)N[C@@H]([C@@H](C)O)C(=O)N1CCC[C@@H]1C(=O)N1C[C@@H](N)C[C@H]1C(=O)N[C@@H](CC(=O)O)C(=O)N2 [Intermediate 18] (cyclo(AWHLGQLVWCT[dP][Pro(4S-NH2)]DC); disulfide 10-15) | < 100 |
| < 100 | CC(C)C[C@@H]1NC(=O)[C@H](Cc2cnc[nH]2)NC(=O)[C@H](Cc2c[nH]c3ccccc23)NC(=O)[C@H](C)NC(=O)[C@@H]2CSSC[C@H](NC(=O)[C@H](Cc3c[nH]c4ccc(Cl)cc34)NC(=O)[C@H](C(C)C)NC(=O)[C@H](CC(C)C)NC(=O)[C@H](CCC(=O)O)NC(=O)CNC1=O)C(=O)N[C@@H]([C@@H](C)O)C(=O)N1CCC[C@@H]1C(=O)N1C[C@@H](N)C[C@H]1C(=O)N[C@@H](CC(=O)O)C(=O)N2 [Intermediate 29] | < 100 |
| < 100 | CC(C)C[C@@H]1NC(=O)[C@H](Cc2cnc[nH]2)NC(=O)[C@H](Cc2c[nH]c3ccccc23)NC(=O)[C@H](C)NC(=O)[C@@H]2CSSC[C@H](NC(=O)[C@H](Cc3c[nH]c4ccccc34)NC(=O)[C@H](C(C)C)NC(=O)[C@H](CC(C)C)NC(=O)[C@H](CCC(=O)N(C)C)NC(=O)CNC1=O)C(=O)N[C@@H]([C@@H](C)O)C(=O)N1CCC[C@@H]1C(=O)N1C[C@@H](N)C[C@H]1C(=O)N[C@@H](CC(=O)O)C(=O)N2 [Intermediate 23] | < 100 |
| < 100 | C#CCCCC(=O)NCCOCCC(=O)N[C@H]1C[C@H]2C(=O)N[C@@H](CC(=O)O)C(=O)N[C@H]3CSSC[C@H](NC(=O)[C@H](Cc4c[nH]c5ccccc45)NC(=O)[C@H](C(C)C)NC(=O)[C@H](CC(C)C)NC(=O)[C@H](CCC(=O)O)NC(=O)CNC(=O)[C@H](CC(C)C)NC(=O)[C@H](Cc4cnc[nH]4)NC(=O)[C@H](Cc4c[nH]c5ccccc45)NC(=O)[C@H](C)NC3=O)C(=O)N[C@@H]([C@@H](C)O)C(=O)N3CCC[C@@H]3C(=O)N2C1 [Intermediate 7] | – |
| < 100 | C#CCCCC(=O)NCCOCCOCCC(=O)N[C@H]1C[C@H]2C(=O)N[C@@H](CC(=O)O)C(=O)N[C@H]3CSSC[C@H](NC(=O)[C@H](Cc4c[nH]c5ccccc45)NC(=O)[C@H](C(C)C)NC(=O)[C@H](CC(C)C)NC(=O)[C@H](CCC(=O)O)NC(=O)CNC(=O)[C@H](CC(C)C)NC(=O)[C@H](Cc4cnc[nH]4)NC(=O)[C@H](Cc4c[nH]c5ccccc45)NC(=O)[C@H](C)NC3=O)C(=O)N[C@@H]([C@@H](C)O)C(=O)N3CCC[C@@H]3C(=O)N2C1 [Intermediate 6] | – |
| < 100 | CC(C)C[C@@H]1NC(=O)[C@H](Cc2cnc[nH]2)NC(=O)[C@H](Cc2c[nH]c3ccccc23)NC(=O)[C@H](C)NC(=O)[C@@H]2CSSC[C@H](NC(=O)[C@@H](Cc3c[nH]c4ccccc34)NC(=O)[C@H](C(C)C)NC(=O)[C@H](CC(C)C)NC(=O)[C@H](CCC(=O)O)NC(=O)CNC1=O)C(=O)N[C@@H]([C@@H](C)O)C(=O)N1CCC[C@@H]1C(=O)N1C[C@@H](N)C[C@H]1C(=O)N[C@@H](CC(=O)O)C(=O)N2 (stereo in doubt) [Intermediate 24] | < 100 |
| < 100 | CNC(=O)CC[C@@H]1NC(=O)CNC(=O)[C@H](CC(C)C)NC(=O)[C@H](Cc2cnc[nH]2)NC(=O)[C@H](Cc2c[nH]c3ccccc23)NC(=O)[C@H](C)NC(=O)[C@@H]2CSSC[C@H](NC(=O)[C@H](Cc3c[nH]c4ccccc34)NC(=O)[C@H](C(C)C)NC(=O)[C@H](CC(C)C)NC1=O)C(=O)N[C@@H]([C@@H](C)O)C(=O)N1CCC[C@@H]1C(=O)N1C[C@@H](N)C[C@H]1C(=O)N[C@@H](CC(=O)O)C(=O)N2 [Intermediate 22] | < 100 |
